Patent US20230357307A1, “CLEAVABLE CYCLIC LOOP NUCLEOTIDES FOR NANOPORE SEQUENCING” (ILLUMINA, INC., priority 2022, published 2023)

Test system: polymerase
Experiment: polymerase incorporation of allyl dTTP (FIG. 7 gel)
Assay type: biochemical
Conditions: homopolymeric A template
From the text: A polymerase incorporated “allyl dTTP” and “ext allyl dTTP” to a template and primer combination, as indicated by the arrow in FIG. 7, for up to 10 successive incorporations. The reaction conditions as well as the definitions of “allyl dTTP” and “ext allyl dTTP” are given in the right panel of FIG. 7. Moreover, “A” and “B” are referring to the optically pure diastereomers arising from the C5′ allyl carbon center.
Lanes 1 (starting from the left), 3, 5, 7, 9 and 11 were loaded with reactions run for an hour; and Lanes 2, 4, 6, 8, 10 and 12 were loaded with reactions run for 22 hours. Lanes 1 and 2 show: controls with natural dTTP without any arresting constructs (Note, bands above +10 are seen due to the use of a homopolymeric A template, a common observation). Lanes 3 and 4 show: one isomer of Allyl dTTP (“Allyl A dTTP”) is used, the isomer arise from the C-stereogenic center (marked with “+” in the structure shown on the right panel of FIG. 7). Up to +7 incorporation observed after 1 h. […] Lanes 5 and 6 show: one isomer of ext allyl dTTP (“Ext Allyl A dTTP”) is used. Up to +7 incorporation observed after 22h. Slower incorporation possibly due to increased sterics. Lanes 7 and 8 show: the other isomer of Allyl dTTP (“Allyl B dTTP”) is used. Up to +10 incorporation observed after 22h. Lanes 9 and 10 show: the other isomer of ext allyl dTTP (“Ext Allyl B dTTP”) is used. […]

Cc1cn([C@H]2C[C@H](O)[C@@H](COP(=O)(O)OP(=O)(O)OP(=O)(O)O)O2)c(=O)[nH]c1=O [dTTP]
incorporation observed (primer +n) (reactions run for 22 hours): above +10 | incorporation observed (primer +n) (reactions run for an hour): above +10
